Key:
Gal4-RORγ-LBD = molecular target: T1, Gal4-RORγ-LBD (Homo sapiens, UniProt P51449); assay: Gal4-RORγ Luciferase Reporter Assay in HEK-293T Cells; type: cell-based; conditions: HEK-293 cells, luciferase reporter; for Gal4-RORγ Assay Max Response: maximum response
T1 construct: expressed in transfected cells
T1 sequence (P51449 269-508 limits assumed): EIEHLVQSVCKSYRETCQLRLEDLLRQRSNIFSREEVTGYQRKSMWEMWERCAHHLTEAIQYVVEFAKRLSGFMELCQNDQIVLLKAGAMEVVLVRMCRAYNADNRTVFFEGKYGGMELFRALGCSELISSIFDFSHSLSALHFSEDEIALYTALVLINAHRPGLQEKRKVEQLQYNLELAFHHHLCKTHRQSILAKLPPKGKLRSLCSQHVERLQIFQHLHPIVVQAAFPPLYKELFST
How it was run: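 Max Response was taken as the upper plateau of a 4-parameter logistic fit of luciferase signal, normalized to 100 for wells without ursolic acid or compound. Transiently Gal4-RORγ-LBD/Gal4-luc transfected HEK-293 cells carrying […] ursolic acid were incubated with test compounds (0.2% DMSO) overnight at 37 °C and read with One-Glo.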

RORγ-LBD = molecular target: T2, RORγ-LBD (Homo sapiens, UniProt P51449); assay: RORγ-Ligand Binding Domain (LBD) TR-FRET Assay; type: biochemical; conditions: for TR-FRET Assay Max Response: maximum response;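 on TR-FRET Assay Max Response: 665/615 nm signal ratio set to 100 without ursolic acid or test compound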
T2 construct: made in house; host or cells: SF9 cells (baculovirus); used as diluted lysate
T2 sequence (P51449 269-508 limits assumed): T1 sequence (P51449 269-508 limits assumed)
How it was run: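 TR-FRET read-out using a biotin-tagged SRC1 coactivator LXXLL peptide (200 nM final), with the antagonist ursolic acid present at 2 μM final. Receptor is His-tagged LBD expressed in SF9 cells, ~3 nM final in pH 7.0 Tris/KCl/EDTA/DTT/BSA buffer; compounds in 1% DMSO final.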

Row | Compound | EC50 (Gal4-RORγ-LBD; with ursolic acid) [nM] | EC50 (RORγ-LBD; RORγ-LBD TR-FRET) [nM] | EC50 (Gal4-RORγ-LBD; in presence of ursolic acid) [nM] | EC50 (RORγ-LBD; RORγ-LBD TR-FRET assay) [nM] | Gal4-RORγ Assay Max Response (Gal4-RORγ-LBD; in presence of ursolic acid) | TR-FRET Assay Max Response (RORγ-LBD; RORγ-LBD TR-FRET assay)
1 | C/C(=C\c1ccc2c(c1)N(S(=O)(=O)c1cncc(C(F)(F)F)c1)C[C@H](CCC(=O)O)O2)c1c(F)cccc1Cl [Example 75, (S,E)-3-(6-(2-(2-Chloro-6-fluorophenyl)prop-1-en-1-yl)-4-((5-(trifluoromethyl)pyridin-3-yl)sulfonyl)-3,4-dihydro-2H-benzo[b][1,4]oxazin-2-yl)propanoic acid] | 500 to 5000 | < 500 | – | – | – | –
2 | COC(=O)CC[C@H]1CN(S(=O)(=O)c2ccc(F)c(Cl)c2)c2cc(/C=C(\C)c3c(F)cccc3Cl)ccc2O1 [Example 86F, (S,E)-methyl 3-(4-((3-chloro-4-fluorophenyl)sulfonyl)-6-(2-(2-chloro-6-fluorophenyl)prop-1-en-1-yl)-3,4-dihydro-2H-benzo-[b][1,4]oxazin-2-yl)propanoate] | < 500 | < 500 | – | – | – | –
3 | C/C(=C\c1ccc2c(c1)N(S(=O)(=O)c1c(Cl)nc3sccn13)C[C@H](CCC(=O)O)O2)c1c(F)cccc1Cl [Example 86U, (S,E)-3-(6-(2-(2-chloro-6-fluorophenyl)prop-1-en-1-yl)-4-((6-chloroimidazo[2,1-b]thiazol-5-yl)sulfonyl)-3,4-dihydro-2H-benzo[b][1,4]oxazin-2-yl)propanoic acid] | 500 to 5000 | < 500 | – | – | – | –
4 | CCOc1nn(CC)cc1S(=O)(=O)N1C[C@H](CCC(=O)OC)Oc2ccc(/C=C(\C)c3c(F)cccc3Cl)cc21 [Example 86J, (S,E)-methyl 3-(6-(2-(2-chloro-6-fluorophenyl)prop-1-en-1-yl)-4-((3-ethoxy-1-ethyl-1H-pyrazol-4-yl)sulfonyl)-3,4-dihydro-2H-benzo[b][1,4]oxazin-2-yl)propanoate] | < 500 | < 500 | – | – | – | –
5 | O=C(O)CC[C@H]1CN(S(=O)(=O)c2cccc(OC(F)F)c2)c2cc(/C=C/c3c(Cl)cccc3Cl)ccc2O1 [Example 89CT, (S,E)-3-(6-(2,6-dichlorostyryl)-4-((3-(difluoromethoxy)phenyl)-sulfonyl)-3,4-dihydro-2H-benzo[b][1,4]oxazin-2-yl)propanoic acid] | < 500 | < 500 | – | – | – | –
6 | COC(=O)CC[C@H]1CN(S(=O)(=O)c2cccc(C(F)(F)F)c2)c2cc(/C=C(\C)c3ccccc3C(F)(F)F)ccc2O1 [Example 86AH, (S,E)-methyl 3-(6-(2-(2-(trifluoromethyl)phenyl)prop-1-en-1-yl)-4-((3-(trifluoromethyl)phenyl)-sulfonyl)-3,4-dihydro-2H-benzo[b][1,4]oxazin-2-yl)propanoate] | 500 to 5000 | < 500 | – | – | – | –
7 | CCn1cc(S(=O)(=O)N2C[C@H](CCC(=O)O)Oc3ccc(/C=C/c4ncccc4Cl)cc32)c(Cl)n1 [Example 89CQ, (S,E)-3-(4-((3-chloro-1-ethyl-1H-pyrazol-4-yl)sulfonyl)-6-(2-(3-chloropyridin-2-yl)vinyl)-3,4-dihydro-2H-benzo[b][1,4]oxazin-2-yl)propanoic acid] | 500 to 5000 | < 500 | – | – | – | –
8 | CCOc1sc(CC)nc1S(=O)(=O)N1C[C@H](CCC(=O)O)Oc2ccc(/C=C(\C)c3c(F)cccc3Cl)cc21 [Example 73, (S,E)-3-(6-(2-(2-Chloro-6-fluorophenyl)prop-1-en-1-yl)-4-((5-ethoxy-2-ethylthiazol-4-yl)sulfonyl)-3,4-dihydro-2H-benzo[b][1,4]oxazin-2-yl)propanoic acid] | < 500 | < 500 | – | – | – | –
9 | COC(=O)CC[C@H]1CN(S(=O)(=O)c2cc(C(F)(F)F)cnc2OC[C@@H](C)O)c2cc(/C=C/c3c(F)cccc3Cl)ccc2O1 [Example 78, Methyl 3-((S)-6-((E)-2-chloro-6-fluorostyryl)-4-((2-((R)-2-hydroxypropoxy)-5-(trifluoromethyl)pyridin-3-yl)sulfonyl)-3,4-dihydro-2H-benzo[b][1,4]oxazin-2-yl)propanoate] | 500 to 5000 | 500 to 5000 | – | – | – | –
10 | COc1cccc(S(=O)(=O)N2C[C@H](CCC(=O)O)Oc3ccc(/C=C(\C)c4c(F)cccc4Cl)cc32)c1 [Example 86M, (S,E)-3-(6-(2-(2-chloro-6-fluorophenyl)prop-1-en-1-yl)-4-((3-methoxyphenyl)sulfonyl)-3,4-dihydro-2H-benzo[b][1,4]oxazin-2-yl)propanoic acid] | 500 to 5000 | < 500 | – | – | – | –
11 | CCOc1nn(CC)cc1S(=O)(=O)N1C[C@H](CCC(=O)O)Oc2ccc(/C=C/c3ccc(Cl)cc3)cc21 [Example 89DB, (S,E)-3-(6-(4-chlorostyryl)-4-((3-ethoxy-1-ethyl-1H-pyrazol-4-yl)sulfonyl)-3,4-dihydro-2H-benzo[b][1,4]oxazin-2-yl)propanoic acid] | > 10000 | > 10000 | – | – | – | –

Now from value to compound, other results behind:

Row | EC50 (Gal4-RORγ-LBD; with ursolic acid) [nM] | EC50 (RORγ-LBD; RORγ-LBD TR-FRET) [nM] | EC50 (Gal4-RORγ-LBD; in presence of ursolic acid) [nM] | EC50 (RORγ-LBD; RORγ-LBD TR-FRET assay) [nM] | Compound | Gal4-RORγ Assay Max Response (Gal4-RORγ-LBD; in presence of ursolic acid) | TR-FRET Assay Max Response (RORγ-LBD; RORγ-LBD TR-FRET assay)
12 | – | – | 500 to 5000 | < 500 | C/C(=C\c1ccc2c(c1)C(S(=O)(=O)c1cccc(C(F)(F)F)c1)CC(CNC(=O)C1CC1)O2)c1c(F)cccc1Cl (stereo not drawn) [Example 183, (E)-N-((6-(2-(2-Chloro-6-fluorophenyl)prop-1-en-1-yl)-4-((3-(trifluoromethyl)phenyl)sulfonyl)chroman-2-yl)methyl)cyclopropanecarboxamide] | ** (a value in the range of greater than 90 to 150) | *** (a value in the range of greater than 150 to 200)
13 | 500 to 5000 | < 500 | – | – | CCOc1nn(CC)cc1S(=O)(=O)N1C[C@H](CCC(=O)O)Oc2ccc(/C=C/c3ccsc3)cc21 [Example 89K, (S,E)-3-(4-((3-ethoxy-1-ethyl-1H-pyrazol-4-yl)sulfonyl)-6-(2-(thiophen-3-yl)vinyl)-3,4-dihydro-2H-benzo[b][1,4]oxazin-2-yl)propanoic acid] | – | –
14 | – | – | < 500 | < 500 | CCn1cc(S(=O)(=O)N2C[C@H](CNC(C)=O)Oc3c(F)cc(/C=C(\C)c4c(F)cccc4Cl)cc32)c(Cl)n1 [Example 109A, (S,E)-N-((4-((3-chloro-1-ethyl-1H-pyrazol-4-yl)sulfonyl)-6-(2-(2-chloro-6-fluorophenyl)prop-1-en-1-yl)-8-fluoro-3,4-dihydro-2H-benzo[b][1,4]oxazin-2-yl)methyl)acetamide] | * (a value in the range of 30 to 90) | *** (a value in the range of greater than 150 to 200)
15 | – | – | 500 to 5000 | < 500 | C/C(=C\c1ccc2c(c1)N(S(=O)(=O)c1cccc(C(F)(F)F)c1)C[C@H](CCC(=O)NCC(=O)O)O2)c1c(F)cccc1Cl [Example 129E, (S,E)-(3-(6-(2-(2-chloro-6-fluorophenyl)prop-1-en-1-yl)-4-((3-(trifluoro-methyl)phenyl)sulfonyl)-3,4-dihydro-2H-benzo[b][1,4]oxazin-2-yl)propanoyl)glycine] | ** (a value in the range of greater than 90 to 150) | **** (a value greater than 200)
16 | < 500 | < 500 | – | – | COC(=O)CC[C@H]1CN(S(=O)(=O)c2cc(C(F)(F)F)cnc2OCCO)c2cc(/C=C/c3c(Cl)cccc3C(F)F)ccc2O1 [Example 89EL, methyl (S,E)-3-(6-(2-chloro-6-(difluoromethyl)styryl)-4-((2-(2-hydroxyethoxy)-5-(trifluoromethyl)pyridin-3-yl)sulfonyl)-3,4-dihydro-2H-benzo[b][1,4]oxazin-2-yl)propanoate] | – | –
17 | 5000 to 10000 | < 500 | – | – | CC(F)(F)c1cccc(Cl)c1/C=C/c1ccc2c(c1)N(S(=O)(=O)c1cccc(C(F)(F)F)c1)C[C@H](CCC(=O)O)O2 [Example 89EV, (S,E)-3-(6-(2-chloro-6-(1,1-difluoroethyl)styryl)-4-((3-(trifluoromethyl)phenyl)-sulfonyl)-3,4-dihydro-2H-benzo[b][1,4]oxazin-2-yl)propanoic acid] | – | –
18 | > 10000 | 500 to 5000 | – | – | CCOc1nn(CC)cc1S(=O)(=O)N1C[C@H](CCC(=O)O)Oc2ccc(/C=C/c3cccc(OC)n3)cc21 [Example 89S, (S,E)-3-(4-((3-ethoxy-1-ethyl-1H-pyrazol-4-yl)sulfonyl)-6-(2-(6-methoxypyridin-2-yl)vinyl)-3,4-dihydro-2H-benzo[b][1,4]-oxazin-2-yl)propanoic acid] | – | –
19 | – | – | 500 to 5000 | < 500 | C/C(=C\c1ccc2c(c1)N(S(=O)(=O)c1cccc(C(F)(F)F)c1)[C@H](C)[C@@H](O)C2)c1c(F)cccc1Cl (racemic) [Example 177, rac-(2R,3S)-7-((E)-2-(2-Chloro-6-fluorophenyl)prop-1-en-1-yl)-2-methyl-1-((3-(trifluoromethyl)phenyl)sulfonyl)-1,2,3,4-tetrahydroquinolin-3-ol] | ** (a value in the range of greater than 90 to 150) | ** (a value in the range of greater than 90 to 150)
20 | < 500 | < 500 | – | – | CCn1cc(S(=O)(=O)N2C[C@H]([C@H](C)O)Oc3ccc(/C=C(\C)c4c(F)cccc4Cl)cc32)c(Cl)n1 [Example 97, (S)-1-((R)-4-((3-Chloro-1-ethyl-1H-pyrazol-4-yl)sulfonyl)-6-((E)-2-(2-chloro-6-fluorophenyl)prop-1-en-1-yl)-3,4-dihydro-2H-benzo[b][1,4]oxazin-2-yl)ethan-1-ol] | – | –
